From patent US20260347364A1, “PYRAZOLO[4,3-F]QUINAZOLINE DERIVATIVES AS MODULATORS OF G12D MUTANT KRAS USEFUL FOR THE TREATMENT OF CANCER” (JAZZ PHARMACEUTICALS IRELAND LTD., priority 2023, published 2026) come the findings set out here.

One experiment deals with T1, KRAS G12D (Homo sapiens, UniProt P01116, G12D).
T1 construct: aa1-188 KRAS WT, HRAS WT, NRAS WT, or KRAS containing the G12D
Kind of experiment: HTRF nucleotide exchange assay, KRAS G12D. The format is biochemical. The conditions noted are these: class symbols; for IC50: HTRF nucleotide exchange assay (NEA). Background: Time-resolved FRET reads energy transfer from a long-lived donor to a nearby acceptor.

A further experiment addresses T2, KRAS WT (Homo sapiens, UniProt P01116).
T2 construct: aa1-188 KRAS WT
Kind of experiment: HTRF nucleotide exchange assay, KRAS WT. The format is biochemical. The conditions noted are these: class symbols; for IC50: HTRF nucleotide exchange assay (NEA).

Regarding `C=Cc1c(F)ccc2cc(O)cc(-c3c(C)c4nc(OC[C@@]56CCCN5C[C@H](F)C6)nc(N5CCCn6nc(C(=O)N(C)C)cc6C5)c4c4cn(C)nc34)c12` [Example 98, 5-[4-(7-fluoro-3-hydroxy-8-vinyl-1-naphthyl)-2,5-dimethyl-7-[[(2R,8S)-2-fluoro-1,2,3,5,6,7-hexahydropyrrolizin-8-yl]methoxy]pyrazolo[4,3-f]quinazolin-9-yl]-N,N-dimethyl-4,6,7,8-tetrahydropyrazolo[1,5-a][1,4]diazepine-2-carboxamide], the IC50 on KRAS G12D and against KRAS WT was no more than 10 nM throughout.

Regarding `CCc1c(F)ccc2cc(O)cc(-c3c(F)c4nc(OC[C@@]56CCCN5C[C@H](F)C6)nc(N5CC6CCC(C5)N6)c4c4cn(C)nc34)c12` [Example 99, 4-[9-(3,8-diazabicyclo[3.2.1]octan-3-yl)-5-fluoro-2-methyl-7-[[(2R,8S)-2-fluoro-1,2,3,5,6,7-hexahydropyrrolizin-8-yl]methoxy]pyrazolo[4,3-f]quinazolin-4-yl]-5-ethyl-6-fluoro-naphthalen-2-ol], the IC50 against KRAS G12D and against KRAS WT was no more than 10 nM in each case.

Turning to `CCc1c(F)ccc2cc(O)cc(-c3c(F)c4nc(OC[C@@]56CCCN5C[C@H](F)C6)nc(N5CCCC(C)(O)C5)c4c4cn(C)nc34)c12` (stereo partly drawn) [Example 100, (3R)-1-[4-bromo-5-fluoro-2-methyl-7-[[(2R,8S)-2-fluoro-1,2,3,5,6,7-hexahydropyrrolizin-8-yl]methoxy]pyrazolo[4,3-f]quinazolin-9-yl]-3-methyl-piperidin-3-ol], the IC50 at KRAS G12D and against KRAS WT was no more than 10 nM in each case.

In the case of `Cc1c(-c2ccc(F)c3sc(N)c(C#N)c23)c2nn(C)cc2c2c(N3CCCn4nc(C(=O)N(C)C)cc4C3)nc(OC[C@@]34CCCN3C[C@H](F)C4)nc12` [Example 101, 5-[4-(2-amino-3-cyano-7-fluoro-benzothiophen-4-yl)-7-[[(2R,8S)-2-fluoro-1,2,3,5,6,7-hexahydropyrrolizin-8-yl]methoxy]-2,5-dimethyl-pyrazolo[4,3-f]quinazolin-9-yl]-N,N-dimethyl-4,6,7,8-tetrahydropyrazolo[1,5-a][1,4]diazepine-2-carboxamide], the IC50 on KRAS G12D and against KRAS WT was no more than 10 nM throughout.

Take `CCc1c(F)ccc2cc(O)cc(-c3cc4nc(OC[C@@]56CCCN5C[C@H](F)C6)nc(N5CCCn6nc(CN(C)C)cc6C5)c4c4cn(C)nc34)c12` [Example 102, 4-[9-[2-[(dimethylamino)methyl]-4,6,7,8-tetrahydropyrazolo[1,5-a][1,4]diazepin-5-yl]-2-methyl-7-[[(2R,8S)-2-fluoro-1,2,3,5,6,7-hexahydropyrrolizin-8-yl]methoxy]pyrazolo[4,3-f]quinazolin-4-yl]-5-ethyl-6-fluoro-naphthalen-2-ol]: the IC50 (in general, the concentration that inhibits the measured activity by half) on KRAS G12D was no more than 10 nM; against KRAS WT, 10 to 100 nM.

As for `CCc1c(F)ccc2cc(O)cc(-c3cc4nc(OC[C@@]56CCCN5C[C@H](F)C6)nc(N5CCCn6nc(C(=O)N(C)C)c(F)c6C5)c4c4cn(C)nc34)c12` [Example 103], the IC50 against KRAS G12D and at KRAS WT was no more than 10 nM each time.

As for `CCc1c(F)ccc2cc(Cl)cc(-c3cc4nc(OC[C@@]56CCCN5C[C@H](F)C6)nc(N5CCCn6nc(C(=O)N(C)C)cc6C5)c4c4cn(C)nc34)c12` [Example 104, 5-[4-(3-chloro-8-ethyl-7-fluoro-1-naphthyl)-2-methyl-7-[[(2R,8S)-2-fluoro-1,2,3,5,6,7-hexahydropyrrolizin-8-yl]methoxy]pyrazolo[4,3-f]quinazolin-9-yl]-N,N-dimethyl-4,6,7,8-tetrahydropyrazolo[1,5-a][1,4]diazepine-2-carboxamide], the 50% inhibitory concentration (IC50) fell in the range of 10 to 100 nM at KRAS G12D and 100 to 10000 nM against KRAS WT.

As for `Cn1cc2c(n1)c(-c1ncc(F)c3sc(N)c(C#N)c13)cc1nc(OC[C@@]34CCCN3C[C@H](F)C4)nc(N3CCC[C@@](C)(O)C3)c12` [Example 106, 2-amino-7-fluoro-4-[2-methyl-7-[[(2R,8S)-2-fluoro-1,2,3,5,6,7-hexahydropyrrolizin-8-yl]methoxy]-9-[(3R)-3-hydroxy-3-methyl-1-piperidyl]pyrazolo[4,3-f]quinazolin-4-yl]thieno[3,2-c]pyridine-3-carbonitrile], the “KRAS^G12D NEA” value on KRAS G12D is recorded as “D (<49% inhibition at 10 μM)”. Further, the “KRAS^WT NEA” value on KRAS WT is recorded as “D (<49% inhibition at 10 μM)”.

As to `Cn1cc2c(n1)c(-c1ncc(F)c3sc(N)c(C#N)c13)cc1nc(OC[C@@]34CCCN3C[C@H](F)C4)nc(N3CCOCC(C)(O)C3)c12` (stereo partly drawn) [Example 107, 2-amino-7-fluoro-4-[7-[[(2R,8S)-2-fluoro-1,2,3,5,6,7-hexahydropyrrolizin-8-yl]methoxy]-9-(6-hydroxy-6-methyl-1,4-oxazepan-4-yl)-2-methyl-pyrazolo[4,3-f]quinazolin-4-yl]thieno[3,2-c]pyridine-3-carbonitrile], the “KRAS^G12D NEA” value at KRAS G12D is listed as “D (<49% inhibition at 10 μM)”. In addition, the “KRAS^WT NEA” value on KRAS WT was “D (<49% inhibition at 10 μM)”.

On to `Cc1c(-c2ncc(F)c3sc(N)c(C#N)c23)c2nn(C)cc2c2c(N3CCOCC(C)(O)C3)nc(OC[C@@]34CCCN3C[C@H](F)C4)nc12` (stereo partly drawn) [Example 108, 2-amino-7-fluoro-4-[7-[[(2R,8S)-2-fluoro-1,2,3,5,6,7-hexahydropyrrolizin-8-yl]methoxy]-9-(6-hydroxy-6-methyl-1,4-oxazepan-4-yl)-2,5-dimethyl-pyrazolo[4,3-f]quinazolin-4-yl]thieno[3,2-c]pyridine-3-carbonitrile], for which the IC50 at KRAS G12D and against KRAS WT was 100 to 10000 nM throughout.

With `CCc1c(F)ccc2cc(O)cc(-c3c(F)c4nc(OC[C@@]56CCCN5C[C@H](F)C6)nc(N5CCOC[C@@](C)(O)C5)c4c4cn(C)nc34)c12` [Example 109, (6S)-4-[4-(8-ethyl-7-fluoro-3-hydroxy-1-naphthyl)-5-fluoro-2-methyl-7-[[(2R,8S)-2-fluoro-1,2,3,5,6,7-hexahydropyrrolizin-8-yl]methoxy]pyrazolo[4,3-f]quinazolin-9-yl]-6-methyl-1,4-oxazepan-6-ol], the IC50 at KRAS G12D and against KRAS WT was no more than 10 nM throughout.

In the case of `CCc1c(F)ccc2cc(O)cc(-c3c(F)c4nc(OC[C@@]56CCCN5C[C@H](F)C6)nc(N5CCOC[C@](C)(O)C5)c4c4cn(C)nc34)c12` [Example 110, (6R)-4-[4-(8-ethyl-7-fluoro-3-hydroxy-1-naphthyl)-5-fluoro-2-methyl-7-[[(2R,8S)-2-fluoro-1,2,3,5,6,7-hexahydropyrrolizin-8-yl]methoxy]pyrazolo[4,3-f]quinazolin-9-yl]-6-methyl-1,4-oxazpan-6-ol], the IC50 on KRAS G12D and at KRAS WT was no more than 10 nM each time.

As to `CCc1c(F)ccc2cc(O)cc(-c3c(F)c4nc(OC[C@@]56CCCN5C[C@H](F)C6)nc(N5CCC(C#N)CC5)c4c4cn(C)nc34)c12` [Example 111, 1-[4-(8-ethyl-7-fluoro-3-hydroxy-1-naphthyl)-5-fluoro-2-methyl-7-[[(2R,8S)-2-fluoro-1,2,3,5,6,7-hexahydropyrrolizin-8-yl]methoxy]pyrazolo[4,3-f]quinazolin-9-yl]piperidine-4-carbonitrile], the results for the IC50 at KRAS G12D and at KRAS WT were 10 to 100 nM and no more than 10 nM, respectively.

In the case of `CCc1c(F)ccc2cc(O)cc(-c3cc4nc(OC[C@@]56CCCN5C[C@H](F)C6)nc(N5CCCn6nc(C(=O)N(C)C)nc6C5)c4c4cn(C)nc34)c12` [Example 112, 8-[4-(8-ethyl-7-fluoro-3-hydroxy-1-naphthyl)-2-methyl-7-[[(2R,8S)-2-fluoro-1,2,3,5,6,7-hexahydropyrrolizin-8-yl]methoxy]pyrazolo[4,3-f]quinazolin-9-yl]-N,N-dimethyl-5,6,7,9-tetrahydro-[1,2,4]triazolo[1,5-a][1,4]diazepine-2-carboxamide], the half-maximal inhibitory concentration (IC50) at KRAS G12D and at KRAS WT was no more than 10 nM in each case.

Take `CCc1c(F)ccc2cc(O)cc(-c3cc4nc(OC[C@@]56CCCN5C[C@H](F)C6)nc(N5CCC(CO)CC5)c4c4cn(C)nc34)c12` [Example 113, 5-ethyl-6-fluoro-4-[9-[4-(hydroxymethyl)-1-piperidyl]-2-methyl-7-[[(2R,8S)-2-fluoro-1,2,3,5,6,7-hexahydropyrrolizin-8-yl]methoxy]pyrazolo[4,3-f]quinazolin-4-yl]naphthalen-2-ol]: the IC50 fell in the range of 100 to 10000 nM against KRAS G12D and 10 to 100 nM at KRAS WT.

Consider `CCc1c(F)ccc2cc(O)cc(-c3cc4nc(OC[C@@]56CCCN5C[C@H](F)C6)nc(N5CCCC(CO)C5)c4c4cn(C)nc34)c12` (stereo partly drawn) [Example 114, 5-ethyl-6-fluoro-4-[9-[3-(hydroxymethyl)-1-piperidyl]-2-methyl-7-[[(2R,8S)-2-fluoro-1,2,3,5,6,7-hexahydropyrrolizin-8-yl]methoxy]pyrazolo[4,3-f]quinazolin-4-yl]naphthalen-2-ol], for which the IC50 was no more than 10 nM against KRAS G12D and 10 to 100 nM on KRAS WT.

For the compound `CCc1c(F)ccc2cc(O)cc(-c3cc4nc(OC[C@@]56CCCN5C[C@H](F)C6)nc(N5CCOC(CO)C5)c4c4cn(C)nc34)c12` (stereo partly drawn) [Example 115, 5-ethyl-6-fluoro-4-[9-[2-(hydroxymethyl)morpholin-4-yl]-2-methyl-7-[[(2R,8S)-2-fluoro-1,2,3,5,6,7-hexahydropyrrolizin-8-yl]methoxy]pyrazolo[4,3-f]quinazolin-4-yl]naphthalen-2-ol], the IC50 at KRAS G12D and against KRAS WT was no more than 10 nM in each case.

`CCc1c(F)ccc2cc(O)cc(-c3cc4nc(OC[C@@]56CCCN5C[C@H](F)C6)nc(N5CCC(C)(O)C5)c4c4cn(C)nc34)c12` (stereo partly drawn) [Example 116, 1-[4-(8-ethyl-7-fluoro-3-hydroxy-1-naphthyl)-2-methyl-7-[[(2R,8S)-2-fluoro-1,2,3,5,6,7-hexahydropyrrolizin-8-yl]methoxy]pyrazolo[4,3-f]quinazolin-9-yl]-3-methyl-pyrrolidin-3-ol]: the IC50 on KRAS G12D and against KRAS WT was 10 to 100 nM throughout.

Take `CCc1c(F)ccc2cc(O)cc(-c3cc4nc(OC[C@@]56CCCN5C[C@H](F)C6)nc(N5CCC(C)(O)CC5)c4c4cn(C)nc34)c12` [Example 118, 1-[4-(8-ethyl-7-fluoro-3-hydroxy-1-naphthyl)-2-methyl-7-[[(2R,8S)-2-fluoro-1,2,3,5,6,7-hexahydropyrrolizin-8-yl]methoxy]pyrazolo[4,3-f]quinazolin-9-yl]-4-methyl-piperidin-4-ol]: the IC50 against KRAS G12D and against KRAS WT was 100 to 10000 nM each time.
